Results taken from patent US11504382B2, “Tricyclic inhibitors of Hepatitis B virus” (Antios Therapeutics, Inc., priority 2018, dated 2022).
Read-outs that look alike come from different tables or passages of the source.

System: HBV
Test: HBV inhibition assay in HepAD38 cells (extracellular HBV DNA by direct qPCR)
Type: cell-based, Hepatitis B virus
Conditions: 96 hours; for EC50: 8-point dose-response curve, read-out: HBV inh EC50; for inhibition at 0.05 µM / inhibition at 0.1 µM: read-out: Anti HBV Activity (conc μM)
[1] = Hepatitis B virus, relative to non-treated reference
[2] = Hepatitis B virus, 0.1 μM, relative to non-treated reference

Cn1cc2c(c1C(=O)Nc1cc(F)c(F)c(F)c1)OC[C@H]1CN(c3ncc(O)cn3)C[C@H]1NS2(=O)=O (relative stereo) [Example E84, cis-2-(5-hydroxypyrimidin-2-yl)-7-methyl-N-(3,4,5-trifluorophenyl)-2,3,3a,4,10,10a-hexahydro-1H,7H-dipyrrolo[3,4-b:3′,4′-f][1,4,5]oxathiazocine-8-carboxamide 5,5-dioxide]
EC50 (Hepatitis B virus): < 1000 nM

CCOC(=O)N1CC2NS(=O)(=O)c3cn(C)c(C(=O)Nc4cc(F)c(F)c(F)c4)c3OCC2(C)C1 (single isomer, unassigned) [Example E92, Ethyl 7,10a-dimethyl-8-((3,4,5-trifluorophenyl)carbamoyl)-3a,4,10,10a-tetrahydro-1H,7H-dipyrrolo[3,4-b:3′,4′-f][1,4,5]oxathiazocine-2(3H)-carboxylate 5,5-dioxide (Chiral 3aS,10aS or 3aR,10aR - Stereochemistry unknown)]
EC50: < 1000 nM

Cc1nnc(C(=O)N2CCC3COc4c(cn(C)c4C(=O)Nc4ccc(F)c(C)c4)S(=O)(=O)NC3C2)o1 (racemic) [Example E135, Cis-N-(4-fluoro-3-methylphenyl)-2-methyl-7-(5-methyl-1,3,4-oxadiazole-2-carbonyl)-5,5a,6,7,8,9,9a,10-octahydro-2H-pyrido[3,4-f]pyrrolo[3,4-b][1,4,5]oxathiazocine-1-carboxamide 4,4-dioxide]
EC50 (Hepatitis B virus): < 1000 nM

Cc1cc(NC(=O)c2c3c(cn2C)S(=O)(=O)N[C@@H]2CCN(C(=O)C4(C)COC4)C[C@H]2CO3)ccc1F (relative stereo) [Example E131, Trans-N-(4-fluoro-3-methylphenyl)-2-methyl-8-(3-methyloxetane-3-carbonyl)-5,5a,6,7,8,9,9a,10-octahydro-2H-pyrido[4,3-f]pyrrolo[3,4-b][1,4,5]oxathiazocine-1-carboxamide 4,4-dioxide]
EC50 (Hepatitis B virus): < 1000 nM

Cn1cc2c(c1C(=O)Nc1cc(F)c(F)c(F)c1)OCC1CN(C(=O)c3cocn3)CC1NS2(=O)=O (stereo not drawn) [Example E65, cis-7-methyl-2-(oxazole-4-carbonyl)-N-(3,4,5-trifluorophenyl)-2,3,3a,4,10,10a-hexahydro-1H,7H-dipyrrolo[3,4-b:3′,4′-f][1,4,5]oxathiazocine-8-carboxamide 5,5-dioxide]
EC50 (Hepatitis B virus): < 1000 nM

Cn1cc2c(c1C(=O)Nc1cc(F)c(F)c(F)c1)OCC1CN(CC#N)CC1NS2(=O)=O (stereo not drawn) [Example E74, cis-2-(cyanomethyl)-7-methyl-N-(3,4,5-trifluorophenyl)-2,3,3a,4,10,10a-hexahydro-1H,7H-dipyrrolo[3,4-b:3′,4′-f][1,4,5]oxathiazocine-8-carboxamide 5,5-dioxide]
inhibition at 0.05 µM [1]: > 50%
EC50 (Hepatitis B virus): < 1000 nM

Cc1nc(C(=O)N2C[C@H]3COc4c(cn(C)c4C(=O)Nc4ccc(F)c(C)c4)S(=O)(=O)N[C@H]3C2)c(C)o1 [Example E114, (3aR,10aR)-2-(2,5-dimethyloxazole-4-carbonyl)-N-(4-fluoro-3-methylphenyl)-7-methyl-2,3,3a,4,10,10a-hexahydro-1H,7H-dipyrrolo[3,4-b:3′,4′-f][1,4,5]oxathiazocine-8-carboxamide 5,5-dioxide]
EC50 (Hepatitis B virus): < 1000 nM

Cn1cc2c(c1C(=O)Nc1cc(F)c(F)c(F)c1)OC[C@@H]1CN(C(=O)c3nnc(N)o3)C[C@@H]1NS2(=O)=O [Example E102, (3aR,10aR)-2-(5-amino-1,3,4-oxadiazole-2-carbonyl)-7-methyl-N-(3,4,5-trifluorophenyl)-2,3,3a,4,10,10a-hexahydro-1H,7H-dipyrrolo[3,4-b:3′,4′-f][1,4,5]oxathiazocine-8-carboxamide 5,5-dioxide]
EC50 (Hepatitis B virus): < 1000 nM

Cc1cc(NC(=O)c2c3c(cn2C)S(=O)(=O)NC2CN(C(=O)c4ncoc4C)CCC2CO3)ccc1F (racemic) [Example E144, Trans-N-(4-fluoro-3-methylphenyl)-2-methyl-7-(5-methyloxazole-4-carbonyl)-5,5a,6,7,8,9,9a,10-octahydro-2H-pyrido[3,4-f]pyrrolo[3,4-b][1,4,5]oxathiazocine-1-carboxamide 4,4-dioxide]
EC50: < 1000 nM

Cc1cc(NC(=O)c2c3c(cn2C)S(=O)(=O)NC2CN(c4ccnc(Cl)c4)CC2CO3)ccc1F (stereo not drawn) [Example E76, cis-2-(2-chloropyridin-4-yl)-N-(4-fluoro-3-methylphenyl)-7-methyl-2,3,3a,4,10,10a-hexahydro-1H,7H-dipyrrolo[3,4-b:3′,4′-f][1,4,5]oxathiazocine-8-carboxamide 5,5-dioxide]
inhibition at 0.05 µM [1]: > 50%
EC50 (Hepatitis B virus): < 1000 nM

Cn1cc2c(c1C(=O)Nc1cc(F)c(F)c(F)c1)OCC1CN(c3nccc(=O)[nH]3)CC1NS2(=O)=O (stereo not drawn) [Example E59, cis-7-methyl-2-(6-oxo-1,6-dihydropyrimidin-2-yl)-N-(3,4,5-trifluorophenyl)-2,3,3a,4,10,10a-hexahydro-1H,7H-dipyrrolo[3,4-b:3′,4′-f][1,4,5]oxathiazocine-8-carboxamide 5,5-dioxide]
EC50 (Hepatitis B virus): > 1000 nM

CNC(=O)N1CC2COc3c(cn(C)c3C(=O)Nc3cc(F)c(F)c(F)c3)S(=O)(=O)NC2C1 (racemic) [Example E23, (3aR,10aR) and (3aS,10aS)—N^2,7-dimethyl-N^8-(3,4,5-trifluorophenyl)-3a,4,10,10a-tetrahydro-1H,7H-dipyrrolo[3,4-b:3′,4′-f][1,4,5]oxathiazocine-2,8(3H)-dicarboxamide 5,5-dioxide]
inhibition at 0.1 µM [2]: > 50%
EC50 (Hepatitis B virus): < 1000 nM

Cc1cc(NC(=O)c2c3c(cn2C)S(=O)(=O)NC2CN(c4cccnc4)CC2CO3)ccc1F (stereo not drawn) [Example E48, cis-N-(4-fluoro-3-methylphenyl)-7-methyl-2-(pyridin-3-yl)-2,3,3a,4,10,10a-hexahydro-1H,7H-dipyrrolo[3,4-b:3′,4′-f][1,4,5]oxathiazocine-8-carboxamide 5,5-dioxide]
EC50 (Hepatitis B virus): < 1000 nM

Cn1cc2c(c1C(=O)Nc1cc(F)c(F)c(F)c1)OCC1CN(S(=O)(=O)C3CC3)CC1NS2(=O)=O (racemic) [Example E20, cis-2-(cyclopropylsulfonyl)-7-methyl-N-(3,4,5-trifluorophenyl)-2,3,3a,4,10,10a-hexahydro-1H,7H-dipyrrolo[3,4-b:3′,4′-f][1,4,5]oxathiazocine-8-carboxamide 5,5-dioxide]
inhibition at 0.1 µM [2]: > 50%
EC50 (Hepatitis B virus): < 1000 nM

Cn1cc2c(c1C(=O)Nc1cc(F)c(F)c(F)c1)OCC1CN(CC(F)(F)F)CC1NS2(=O)=O (stereo not drawn) [Example E73, cis-7-methyl-2-(2,2,2-trifluoroethyl)-N-(3,4,5-trifluorophenyl)-2,3,3a,4,10,10a-hexahydro-1H,7H-dipyrrolo[3,4-b:3′,4′-f][1,4,5]oxathiazocine-8-carboxamide 5,5-dioxide]
inhibition at 0.1 µM [2]: > 50%

Cn1cc2c(c1C(=O)Nc1ccc(F)c(F)c1)OCC1CCCC1NS2(=O)=O (single isomer, unassigned) [Example E35, N-(3,4-difluorophenyl)-2-methyl-5a,6,7,8,8a,9-hexahydro-2H,5H-cyclopenta[f]pyrrolo[3,4-b][1,4,5]oxathiazocine-1-carboxamide 4,4-dioxide (Chiral 5aS,8aR or 5aR,8aS - Stereochemistry unknown)]
Anti HBV Activity (conc μM) (0.1 μM, relative to non-treated reference): A (0.1) (HBV inhibition greater than 50% at the concentration indicated in the table)
EC50: < 1000 nM

Cn1cc2c(c1C(=O)Nc1cc(F)c(F)c(F)c1)OCC1CN(C(=O)c3cnco3)CC1NS2(=O)=O (stereo not drawn) [Example E64, cis-7-methyl-2-(oxazole-5-carbonyl)-N-(3,4,5-trifluorophenyl)-2,3,3a,4,10,10a-hexahydro-1H,7H-dipyrrolo[3,4-b:3′,4′-f][1,4,5]oxathiazocine-8-carboxamide 5,5-dioxide]
EC50 (Hepatitis B virus): < 1000 nM

Cc1cc(NC(=O)c2c3c(cn2C)S(=O)(=O)NC2CNCC2CO3)ccc1F (stereo not drawn) [Example E47, cis-N-(4-fluoro-3-methylphenyl)-7-methyl-2,3,3a,4,10,10a-hexahydro-1H,7H-dipyrrolo[3,4-b:3′,4′-f][1,4,5]oxathiazocine-8-carboxamide 5,5-dioxide hydroiodide]
inhibition at 0.05 µM [1]: > 50%
EC50 (Hepatitis B virus): < 1000 nM

Cc1nnc(C(=O)N2C[C@H]3COc4c(cn(C)c4C(=O)Nc4ccc(F)c(Cl)c4)S(=O)(=O)N[C@H]3C2)o1 [Example E99, (3aR,10aR)—N-(3-chloro-4-fluorophenyl)-7-methyl-2-(5-methyl-1,3,4-oxadiazole-2-carbonyl)-2,3,3a,4,10,10a-hexahydro-1H,7H-dipyrrolo[3,4-b:3′,4′-f][1,4,5]oxathiazocine-8-carboxamide 5,5-dioxide]
EC50 (Hepatitis B virus): < 1000 nM

Cc1cc(NC(=O)c2c3c(cn2C)S(=O)(=O)NC2CN(C(=O)C45CC(CO4)C5)CCC2CO3)ccc1F (racemic) [Example E143, Trans-7-(2-oxabicyclo[2.1.1]hexane-1-carbonyl)-N-(4-fluoro-3-methylphenyl)-2-methyl-5,5a,6,7,8,9,9a,10-octahydro-2H-pyrido[3,4-f]pyrrolo[3,4-b][1,4,5]oxathiazocine-1-carboxamide 4,4-dioxide]
EC50: < 1000 nM

Cc1cc(C(=O)N2CC3COc4c(cn(C)c4C(=O)Nc4ccc(F)c(C)c4)S(=O)(=O)NC3C2)no1 (stereo not drawn) [Example E52, cis-N-(4-fluoro-3-methylphenyl)-7-methyl-2-(5-methylisoxazole-3-carbonyl)-2,3,3a,4,10,10a-hexahydro-1H,7H-dipyrrolo[3,4-b:3′,4′-f][1,4,5]oxathiazocine-8-carboxamide 5,5-dioxide]
inhibition at 0.05 µM [1]: > 50%
EC50 (Hepatitis B virus): < 1000 nM

CCOC(=O)N1CC2COc3c(cn(C)c3C(=O)Nc3ccc(F)c(Cl)c3)S(=O)(=O)NC2C1 (racemic) [Example E15, Cis-Ethyl 8-((3-chloro-4-fluorophenyl)carbamoyl)-7-methyl-3a,4,10,10a-tetrahydro-1H,7H-dipyrrolo[3,4-b:3′,4′-f][1,4,5]oxathiazocine-2(3H)-carboxylate 5,5-dioxide]
inhibition at 0.1 µM [2]: > 50%
EC50 (Hepatitis B virus): < 1000 nM
